The text below walks through data of PubChem BioAssay AID1033 (Sanford-Burnham Center for Chemical Genomics, 2008).

Activity calls are given as the source filed them. No rule for the calls is given here.

By Kd is commonly meant the constant that tells how readily two partners part at equilibrium.

The experiment deals with Chaperone protein DnaK (Escherichia coli (strain K12)) (UniProt P0A6Y8). The experiment in a line: E. coli DnaK SBD ligand binding – biophysical, NMR, chaperone (AID 1033). The note with it: Purified DnaK SBD.
Sequence of Chaperone protein DnaK (Escherichia coli (strain K12)) (P0A6Y8 whole entry, looked up): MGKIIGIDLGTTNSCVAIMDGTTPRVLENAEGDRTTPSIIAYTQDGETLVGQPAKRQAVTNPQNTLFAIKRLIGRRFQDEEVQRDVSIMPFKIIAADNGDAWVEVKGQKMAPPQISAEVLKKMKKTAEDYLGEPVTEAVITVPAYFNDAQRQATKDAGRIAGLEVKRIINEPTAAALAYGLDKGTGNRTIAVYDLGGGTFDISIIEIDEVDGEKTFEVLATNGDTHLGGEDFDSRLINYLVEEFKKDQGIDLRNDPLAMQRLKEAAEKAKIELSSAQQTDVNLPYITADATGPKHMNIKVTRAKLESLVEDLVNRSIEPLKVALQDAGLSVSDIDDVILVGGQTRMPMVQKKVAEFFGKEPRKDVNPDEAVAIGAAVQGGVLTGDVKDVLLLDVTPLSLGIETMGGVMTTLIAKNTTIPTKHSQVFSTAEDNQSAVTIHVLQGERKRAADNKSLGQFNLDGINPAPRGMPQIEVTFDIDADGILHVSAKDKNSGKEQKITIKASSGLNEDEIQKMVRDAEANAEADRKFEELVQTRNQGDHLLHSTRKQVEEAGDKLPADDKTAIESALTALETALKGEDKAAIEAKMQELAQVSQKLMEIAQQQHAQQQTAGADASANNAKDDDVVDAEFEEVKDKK
Take `COc1ccc(-c2coc3c(OC)c(OC)cc(OC)c3c2=O)cc1`: the Kd is > 4 mM (inactive).
As to `CC(=O)Nc1cccc(NC(=O)c2ccco2)c1`, the Kd is > 4 mM (inactive).
The value for `NC(c1ccccc1)c1ccccn1` (stereo unspecified) was > 4 mM (inactive); that for `COc1ccc(NC(=O)C2CC(=O)N=C(N)S2)cc1` (stereo unspecified) was > 4 mM (inactive); that for `O=C(O)C(O)C(O)C(O)C(O)C(=O)O` (stereo unspecified) was > 4 mM (inactive).
With `O=C1c2ccccc2C(=O)N1Cc1ccco1`, the Kd is > 4 mM (inactive).
With `CCOC(=O)CNc1ncnc2c1nnn2CC`, the Kd was > 4 mM (inactive).
The value for `CNC(=O)C1=NCCCc2cc(OC)c(OC)cc21` was > 4 mM (inactive); that for `N#Cc1cnc(N2CCCCC2)nc1N` was > 4 mM (inactive).
As to `Cc1c(CO)cnn1-c1ccccc1`, the Kd was > 4 mM (inactive).
As to `COc1cc(OC)c2c(=O)c(OC)c(-c3ccc(OC)c(OC)c3)oc2c1`, the Kd was > 4 mM (inactive).
With `Cc1oc(-c2ccccc2)nc1CC(=O)O`, the Kd is > 4 mM (inactive).
Take `Cc1cc(=O)n2[nH]cnc2n1`: the Kd was > 4 mM (inactive).
Next, `NC1=NC(=O)C(Cc2ccccc2)S1` (stereo unspecified): > 4 mM (inactive); `CC(O)C(=O)N/N=C/c1cccs1` (stereo unspecified): > 4 mM (inactive); `CCOc1ccc(C(=O)c2ccc(O)c(O)c2O)cc1`: > 4 mM (inactive).
Next, `NC(Cc1c[nH]c2ccccc12)C(=O)O` (stereo unspecified): > 4 mM (inactive); `CN1CCCC1C(=O)O` (stereo unspecified): > 4 mM (inactive).
Next, `O=S(=O)(c1cccc(Cl)c1)N1CCCC1`: > 4 mM (inactive); `COc1ccc2[nH]cc(CCNC(C)=O)c2c1`: > 4 mM (inactive).
In the case of `CN1CCN(C(=O)c2ccco2)CC1`, the Kd is > 4 mM (inactive).
`COc1ccc(S(N)(=O)=O)cc1`: the Kd was > 4 mM (inactive).
Next, `Cc1csc(NC(=O)c2cccs2)n1`: > 4 mM (inactive); `CNC(=O)Cn1c(=O)n(C)c2ccccc21`: > 4 mM (inactive).
Next, `CC(=O)O[C@H]1C[C@@H](OC(C)=O)C(C)(C)C2C[C@@H](OC(C)=O)[C@@]3(C)C4=CC(=O)O[C@@H](c5ccoc5)[C@]4(C)CCC3[C@]21C` (stereo partly specified): > 4 mM (inactive); `OCc1ccc(OC(F)(F)F)cc1`: > 4 mM (inactive).
With `OCC1CNc2ccccc2O1` (stereo unspecified), the Kd was > 4 mM (inactive).
The value for `OCc1ccc2nsnc2c1` was > 4 mM (inactive).
Next, `O=C(Nc1ccccc1F)c1ccncc1`: > 4 mM (inactive); `Cc1ccc(SCCN2C(=O)NC(C)(C)C2=O)cc1`: > 4 mM (inactive).
For `O=c1c(O)c(-c2ccc(O)c(O)c2)oc2cc(O)ccc12`, the Kd is > 4 mM (inactive).
Consider `Cc1cc(=O)n2[nH]c(COc3ccccc3)nc2n1`, for which the Kd was > 4 mM (inactive).
Next, `CS/C(N)=C\C(C)=O`: > 4 mM (inactive).
Next, `CC1=C2[C@H]3OC(=O)[C@@H](C)[C@@H]3CC[C@@]2(C)C=CC1=O`: > 4 mM (inactive).
For `Nc1ccc2nccnc2c1`, the Kd is > 4 mM (inactive).
On to `Nc1ccc(CN2CCOCC2)cc1`, for which the Kd is > 4 mM (inactive).
`CC(=O)N1CCN(S(=O)(=O)c2ccccc2)CC1`: the Kd is > 4 mM (inactive).
Regarding `Cc1ccccc1NC(=O)CC1SC(N)=NC1=O` (stereo unspecified), the Kd was > 4 mM (inactive).
With `C=C1C[C@]23C[C@@]1(O)CC[C@H]2[C@@]12C=C[C@H](O)C(C)(C(=O)O1)[C@H]2[C@@H]3C(=O)O`, the Kd was > 4 mM (inactive).
As for `CC12OC(=O)CC3C(C)(C)[C@H](O)C=C[C@]3(C)C1CC[C@]1(C)C2=CC(=O)O[C@H]1c1ccoc1` (stereo partly specified), the Kd was > 4 mM (inactive).
In the case of `Cc1cc(C)n(-c2cccc3cccnc23)n1`, the Kd was > 4 mM (inactive).
The value for `CSc1ccc(S(=O)(=O)N2CCCC2)cc1` was > 4 mM (inactive); that for `CCCC(=O)N1CCSCC1` was > 4 mM (inactive).
For the compound `CC(=O)Nc1ccc(-c2ccc3nncn3n2)cc1`, the Kd is > 4 mM (inactive).
The value for `O=C(O)CCCN1CNC(=S)NC1` was > 4 mM (inactive).
Next, `NS(=O)(=O)c1ccc2c3c(cccc13)C(=O)N2`: > 4 mM (inactive); `c1ccc(Cc2nnc3sc(-c4cccnc4)nn23)cc1`: > 4 mM (inactive).
Turning to `CCC(=O)n1nc(-c2ccco2)nc1N`, the Kd is > 4 mM (inactive).
The value for `CCCOn1nnnc1-c1ccccc1` was > 4 mM (inactive); that for `CC1=NN(C(N)=S)C(C)(C)C1` was > 4 mM (inactive); that for `CC1(O)CC2C=CC1C2` (stereo unspecified) was > 4 mM (inactive).
Next, `N#Cc1cc(-c2ccccc2)oc1N`: > 4 mM (inactive).
As for `O=C1C=CC(=O)N1c1ccccc1O`, the Kd was > 4 mM (inactive).
Next, `O=C1CCC([N+](=O)[O-])C(c2ccccc2F)N1` (stereo unspecified): > 4 mM (inactive).
Next, `O=P(O)(Cc1ccccc1)c1ccccc1`: > 4 mM (inactive); `O=C(c1ncc[nH]1)c1ccccc1C(=O)N1CCOCC1`: > 4 mM (inactive).
For the compound `OCc1csc(-c2cccs2)n1`, the Kd was > 4 mM (inactive).
The value for `Cc1ccc(/C=C2/NC(=S)NC2=O)s1` was > 4 mM (inactive).
As to `COC(=O)C1=C(C)N(c2cccc(C(C)=O)c2)C(=O)C1`, the Kd is > 4 mM (inactive).
Next, `Cn1nc(C(=O)Nc2cccnc2)c2ccccc2c1=O`: > 4 mM (inactive); `Cc1n[nH]c(=S)[nH]c1=O`: > 4 mM (inactive).
On to `CN(Cc1nc2ccccc2n1C)S(C)(=O)=O`, for which the Kd was > 4 mM (inactive).
Next, `COc1ccc2c(c1OC)C(=O)OC2[C@H]1c2c(cc3c(c2OC)OCO3)CCN1C` (stereo partly specified): > 4 mM (inactive).
Turning to `Cc1cc(C)n(-c2ccc(Cl)nn2)n1`, the Kd is > 4 mM (inactive).
Consider `O=C1CSC(=Nc2cc(Cl)ccc2Cl)N1`, for which the Kd was > 4 mM (inactive).
Next, `CC1=NN(c2ccc(N)cc2)C(=O)C1`: > 4 mM (inactive); `S=C1NC(=S)NC(c2ccc3c(c2)OCO3)N1`: > 4 mM (inactive).
Regarding `O=c1c2c(nc3nc(COc4ccccc4)[nH]n13)CCC2`, the Kd is > 4 mM (inactive).
For `Cc1nnc2ccc(N3CCCC3)nn12`, the Kd is > 4 mM (inactive).
Next, `CC1(C)C(=O)CC[C@@]2(C)C1C[C@@H](O)[C@@]1(C)C3=CC(=O)O[C@@H](c4ccoc4)[C@]3(C)CCC21` (stereo partly specified): > 4 mM (inactive).
The value for `C=C1C(=O)O[C@@H]2C[C@@]3(C)CCC[C@H](C)C3=C[C@H]12` was > 4 mM (inactive); that for `COc1cccc(C(=O)Nc2c(C)n[nH]c2C)c1` was > 4 mM (inactive).
Consider `Cc1nnc(NCCCO)[nH]c1=O`, for which the Kd is > 4 mM (inactive).
Turning to `CSc1n[nH]c(NCc2ccccc2)n1`, the Kd was > 4 mM (inactive).
The value for `NC(=O)C(=O)NCc1ccc(Cl)cc1` was > 4 mM (inactive); that for `C[C@H]1CCCC(=O)CCC/C=C/c2cc(O)cc(O)c2C(=O)O1` was > 4 mM (inactive); that for `CC(=O)Nc1cc(S(=O)(=O)N(C)C)ccc1Cl` was > 4 mM (inactive).
Next, `O=C(NCc1ccco1)c1ccc(=O)[nH]c1`: > 4 mM (inactive); `Clc1ncc2[nH]cnc2n1`: > 4 mM (inactive); `Cc1nc(-c2cc(C(=O)O)no2)cs1`: > 4 mM (inactive).
With `COc1cc([C@@H]2c3cc4c(cc3[C@H](O)[C@H]3COC(=O)[C@@H]23)OCO4)cc(OC)c1OC`, the Kd was > 4 mM (inactive).
Turning to `Nc1cc(=O)[nH]c(SCC(=O)Nc2nccs2)n1`, the Kd was > 4 mM (inactive).
With `Cc1cc(NS(=O)(=O)Cc2ccccc2)no1`, the Kd is > 4 mM (inactive).
The value for `CC1(C)CC2(CCO1)NCCN1C(=O)CSC12` (stereo unspecified) was > 4 mM (inactive).
For the compound `COc1ccc(-c2cc(=O)c3c(OC(C)=O)cc(OC(C)=O)cc3o2)cc1`, the Kd was > 4 mM (inactive).
Consider `O=C(CSc1ncccn1)NCc1ccco1`, for which the Kd is > 4 mM (inactive).
The value for `CCN1CCC(=NO)CC1` was > 4 mM (inactive); that for `O=C(O)c1ccc(CN2CCCCC2)o1` was > 4 mM (inactive); that for `Cc1ccc2nc(SCC(=O)O)nc(C)c2c1` was > 4 mM (inactive).
Next, `O=C1C2CC=CCC2C(=O)N1c1ccccc1` (stereo unspecified): > 4 mM (inactive); `CC1CCN(C(=O)c2ccc(NS(C)(=O)=O)cc2)CC1`: > 4 mM (inactive).
Regarding `Cc1cc(C(F)(F)F)n2nc(C(=O)O)c(Cl)c2n1`, the Kd was > 4 mM (inactive).
Take `O=c1ccc2cc(O)c(O)cc2o1`: the Kd was > 4 mM (inactive).
Next, `O=C(O)CN1CCN(C2CCCC2)CC1`: > 4 mM (inactive); `O=C1NC(=O)C(=Cc2cccs2)C(=O)N1`: > 4 mM (inactive); `COc1ccc(N/C(N)=N\c2nc(C)cc(C)n2)cc1`: > 4 mM (inactive).
Next, `Cc1nc2nc(Cc3ccccc3)[nH]n2c(=O)c1Cl`: > 4 mM (inactive); `CNC(=O)c1cccc(NC(=S)NC)c1`: > 4 mM (inactive).
The value for `CC(=O)/C=C\[C@@H]1[C@@]2(C)CCCC(C)(C)C2CC[C@@]1(C)O` (stereo partly specified) was > 4 mM (inactive); that for `Cc1sc2nc(SC3CCOC3=O)[nH]c(=O)c2c1C` (stereo unspecified) was > 4 mM (inactive).
On to `CC1CCN(C(=S)c2ccccc2O)CC1`, for which the Kd is > 4 mM (inactive).
Next, `OCc1ncoc1-c1ccccc1`: > 4 mM (inactive).
The value for `CC(=O)NC(=S)Nc1nc2ccccc2n1C(C)=O` was > 4 mM (inactive).
Next, `NC1CSCC1O` (stereo unspecified): > 4 mM (inactive).
Turning to `NC(=O)CSc1nnc2ccc(-c3ccco3)nn12`, the Kd is > 4 mM (inactive).
With `O=c1c(O)c(-c2ccccc2)oc2ccccc12`, the Kd is > 4 mM (inactive).
